Each compound was assayed against T1, full-length human PKCι (Homo sapiens, UniProt P41743) (assay: PKCι IC50 IMAP fluorescence polarisation assay, full-length enzyme, 150 μM ATP). Details: read-out: IC50 in IMAP assay against full length PKCi at 150 μM ATP.
T1 construct: Recombinant, full-length human PKCι expressed in Sf21 insect cells is also commercially available; purchased EMD Millipore; host or cells: Sf21 insect cells (baculovirus)
T1 sequence (P41743 1-596): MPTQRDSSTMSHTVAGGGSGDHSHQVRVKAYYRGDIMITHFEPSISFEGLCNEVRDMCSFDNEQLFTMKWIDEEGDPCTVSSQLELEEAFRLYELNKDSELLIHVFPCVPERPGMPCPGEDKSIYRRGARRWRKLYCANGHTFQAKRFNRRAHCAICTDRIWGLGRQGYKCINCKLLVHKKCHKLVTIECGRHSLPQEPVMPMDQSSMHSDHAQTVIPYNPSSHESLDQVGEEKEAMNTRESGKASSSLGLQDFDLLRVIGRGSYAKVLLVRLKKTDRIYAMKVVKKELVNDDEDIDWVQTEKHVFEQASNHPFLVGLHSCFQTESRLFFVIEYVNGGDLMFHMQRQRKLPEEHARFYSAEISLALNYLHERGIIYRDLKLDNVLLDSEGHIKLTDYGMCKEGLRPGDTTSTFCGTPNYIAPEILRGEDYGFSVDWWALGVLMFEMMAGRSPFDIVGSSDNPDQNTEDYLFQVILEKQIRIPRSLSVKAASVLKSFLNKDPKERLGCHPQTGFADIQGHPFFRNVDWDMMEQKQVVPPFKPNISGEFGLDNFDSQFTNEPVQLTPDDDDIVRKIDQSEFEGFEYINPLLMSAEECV
Format: biochemical
Description: Assays are based on the ability of PKCι to phosphorylate a commercially available peptide substrate in vitro. The peptide substrate is FAM-PKCε pseudopeptide derived peptide, and comprises the amino acid sequence 5FAM-ERMRPRKRQGSVRRRV-NH2. Recombinant, full-length human PKCι expressed in Sf21 insect cells is also commercially available. Recombinant, kinase-domain human PKCι is expressed and purified in-house.
The procedure below explains how dose response curves for inhibitors of PKCι are obtained. The screen described is for a 384 well format but the assay can be adapted to 1536 or other formats as required.
Compounds to be tested are dissolved in 100% DMSO. Compounds are diluted as required to give a final concentration of 4% DMSO (v/v) in the assay. 1 μl is plated into 384 well black low-binding flat bottomed assay plates which are used immediately. Dilutions and additions of compound to assay plates are carried out using Matrix WellMate® and Matrix PlateMate® Plus liquid handling systems.
On the day of the screen PKCι/substrate working solution, and ATP working solution, are prepared in buffer containing 20 mM tris-HCl pH7.5, 10 mM MgCl2, 0.01% Triton X100, 250 μM EGTA and 1 mM DTT. The final concentration of PKCι used varies depending on the batch of protein but is typically 15 pM. The final concentration of peptide substrate in the assay is 100 nM. ATP is used at a final concentration of 150 μM or 25 μM in the assays containing full-length or kinase-domain PKCι respectively, which corresponds to five times or equal to the KM^APP for ATP for each enzyme, respectively. The final buffer concentration in the assay is 18 mM tris-HCl pH7.5, 9 mM MgCl2, 0.009% Triton X100, 225 μM EGTA and 0.9 mM DTT. Relevant controls are included, namely no compound and no enzyme. 5 μl PKCι/substrate working solution at 30 pM and 200 nM, respectively, is added to the wells, followed by 4 μl ATP working solution at 375 μM or 62.5 μM for full-length or kinase-domain PKCι respectively, using a 16 channel Matrix pipette. The reaction is allowed to incubate for 60 minutes at room temperature, before the reaction is stopped and developed by the addition of 20 μl IMAP™ development reagent (Molecular Devices). IMAP development reagent consists of 0.25% (v/v) IMAP progressive binding reagent, 17% (v/v) IMAP progressive binding buffer A and 3% (v/v) IMAP progressive binding buffer B. The plates are then incubated for 2 hours at room temperature before being read using an appropriate plate reader, for example a Molecular Devices HT Analyst or a BMG Pherastar. Plates are read using a fluorescence polarisation protocol with excitation at 485 nm and emission at 530 nm, and dichroic mirror at 505 nm.
Percentage inhibition values are calculated from fluorescence polarisation values, using the no compound and no enzyme control values as 0% and 100% inhibition, respectively. IC50 determination is performed with ExcelFit software (IDBS) using curve fit 205. Z′ factors are determined for each plate tested and are all above 0.5.
Alternatively, compounds were tested for their ability to inhibit the kinase activity of recombinant human baculovirus-expressed PKCiota using the immobilized metal-ion affinity particle (IMAP®) fluorescence polarization detection system (Molecular Devices, Sunnyvale, Calif.). PKCiota/IMAP® substrate mixture (2×) was prepared in 1×IMAP assay buffer (Molecular Devices) containing 1 mM DTT so that the final assay concentrations were 15 pM PKCiota (EMD Millipore, Billerica, Mass.) and 100 nM 5-fluorescein-amidite (FAM)-PKC ? -pseudosubstrate (5-FAM-ERMRPRKRQGSVRRRV-NH2) (Molecular Devices). The 2× working solution was added at 5 μL/well into a 384-well black, non-binding, flat bottom assay plate (Corning, Corning, N.Y.). […]

SMILES	IC50 [nM]
FC(F)(F)c1cncc2nc(-c3ccnc4[nH]c5ccccc5c34)nc(NC3CCNCC3)c12 [Example 348, Piperidin-4-yl-[2-(9H-pyrido[2,3-b]indol-4-yl)-5-trifluoromethyl-pyrido[3,4-d]pyrimidin-4-yl]-amine]	< 100
C[C@@H]1CNCC[C@@H]1Nc1nc(-c2ccnc(Nc3nc(F)ccc3F)c2)nc2cncc(C3CC3)c12 (racemic) [Example 224, (±)-{5-Cyclopropyl-2-[2-(3,6-difluoro-pyridin-2-ylamino)-pyridin-4-yl]-pyrido[3,4-d]pyrimidin-4-yl}-((3,4-cis)-3-methyl-piperidin-4-yl)-amine]	< 100
OC[C@@H]1CNCCN1c1nc(-c2ccnc3[nH]c(C(F)(F)F)cc23)nc2cncc(C3CC3)c12 [Example 4, {(S)-1-[5-Cyclopropyl-2-(2-trifluoromethyl-1H-pyrrolo[2,3-b]pyridin-4-yl)-pyrido[3,4-d]pyrimidin-4-yl]-piperazin-2-yl}-methanol]	100 to 1000
O[C@]12CCN(c3nc(-c4ccnc5[nH]c6ccccc6c45)nc4cncc(C5CC5)c34)[C@H]1CCNC2 (racemic) [Example 113, (±)-(3aS,7aS)-1-[5-Cyclopropyl-2-(9H-pyrido[2,3-b]indol-4-yl)-pyrido[3,4-d]pyrimidin-4-yl]-octahydro-pyrrolo [3,2-c]pyridin-3a-ol]	< 100
CN(c1nc(-c2ccnc(Nc3cc4ccccn4n3)c2)nc2cncc(C3CC3)c12)C1CCNCC1(C)C (stereo not shown) [Example 36, {5-Cyclopropyl-2-[2-(pyrazolo[1,5-a]pyridin-2-ylamino)-pyridin-4-yl]-pyrido[3,4-d]pyrimidin-4-yl}-(3,3-dimethyl-piperidin-4-yl)-methyl-amine]	< 100
CC1(C)CNCCC1Nc1nc(-c2ccnc(Nc3nc(F)cc(F)c3F)c2)nc2cncc(C3CCC3)c12 (stereo not shown) [Example 87, {5-Cyclobutyl-2-[2-(3,4,6-trifluoro-pyridin-2-ylamino)-pyridin-4-yl]-pyrido[3,4-d]pyrimidin-4-yl}-(3,3-dimethyl-piperidin-4-yl)-amine]	< 100
CN(c1nc(-c2ccnc3[nH]c(-c4cc(F)ccc4Cl)cc23)nc2cncc(C3CC3)c12)[C@@H]1CCNC[C@@]1(C)O (racemic) [Example 359, rac-(3R,4R)-4-({2-[2-(2-Chloro-5-fluoro-phenyl)-1H-pyrrolo[2,3-b]pyridin-4-yl]-5-cyclopropyl-pyrido[3,4-d]pyrimidin-4-yl}-methyl-amino)-3-methyl-piperidin-3-ol]	< 100
C[C@H]1CNCC[C@@H]1Nc1nc(-c2ccnc(Nc3nc(F)ccc3F)c2)nc2cncc(C3CCC3)c12 (single isomer, unassigned) [Example 280, {5-Cyclobutyl-2-[2-(3,6-difluoro-pyridin-2-ylamino)-pyridin-4-yl]-pyrido[3,4-d]pyrimidin-4-yl}-((3S,4S)-3-methyl-piperidin-4-yl)-amine or enantiomer]	< 100
c1cncc(-c2cc3c(-c4nc(N5CCC6CNCCC65)c5c(C6CC6)cncc5n4)ccnc3[nH]2)c1 (stereo not shown) [Example 356, 5-Cyclopropyl-4-(octahydro-pyrrolo[3,2-c]pyridin-1-yl)-2-(2-pyridin-3-yl-1H-pyrrolo[2,3-b]pyridin-4-yl)-pyrido[3,4-d]pyrimidine]	< 100
FC(F)(F)c1cc2c(-c3nc(N4CCCC5NCCCC54)c4c(C5CCC5)cncc4n3)ccnc2[nH]1 (racemic) [Example 81, 5-Cyclobutyl-4-(octahydro-[1,5]naphthyridin-1-yl)-2-(2-trifluoromethyl-1H-pyrrolo[2,3-b]pyridin-4-yl)-pyrido[3,4-d]pyrimidine]	< 100
COc1nc(-c2ccnc3[nH]c4ccccc4c23)nc2cncc(C3CCC3)c12 [Example 30, 4-(5-Cyclobutyl-4-methoxy-pyrido[3,4-d]pyrimidin-2-yl)-9H-pyrido[2,3-b]indole]	10000 to 40000
c1ccc(Nc2cc(-c3nc(N4CCC5NCCCC54)c4c(C5CCC5)cncc4n3)ccn2)cc1 (stereo not shown) [Example 125, {4-[5-Cyclobutyl-4-(octahydro-pyrrolo[3,2-b]pyridin-1-yl)-pyrido[3,4-d]pyrimidin-2-yl]-pyridin-2-yl}-phenyl-amine]	< 100
CC1(C)CNCC[C@@H]1Nc1nc(-c2ccnc3[nH]c(-c4ccncc4)cc23)nc2cncc(C3CC3)c12 [Example 371, 5-Cyclopropyl-N-[(4S)-3,3-dimethyl-4-piperidyl]-2-[2-(4-pyridyl)-1H-pyrrolo[2,3-b]pyridin-4-yl]pyrido[3,4-d]pyrimidin-4-amine]	< 100

Results, then the compound that gave them:

IC50 [nM]	SMILES
< 100	CC1(C)CNCC[C@@H]1Nc1nc(-c2ccnc(Nc3nc4ccc(F)cc4o3)c2)nc2cncc(C3CCC3)c12 [Example 338, N-[4-[5-Cyclobutyl-4-[[(4S)-3,3-dimethyl-4-piperidyl]amino]pyrido [3,4-d]pyrimidin-2-yl]-2-pyridyl]-6-fluoro-1,3-benzoxazol-2-amine]
< 100	CC1(C)CNCC[C@@H]1Nc1nc(-c2ccnc(Nc3cccc(C#N)n3)c2)nc2cncc(C3CCC3)c12 [Example 317, 6-{4-[5-Cyclobutyl-4-((S)-3,3-dimethyl-piperidin-4-ylamino)-pyrido[3,4-d]pyrimidin-2-yl]-pyridin-2-ylamino}-pyridine-2-carbonitrile]
< 100	CC1(C)CNCCC1Nc1nc(-c2ccnc(Nc3cc4ccccn4n3)c2)nc2cncc(C3CCC3)c12 (stereo not shown) [Example 136, {5-Cyclobutyl-2-[2-(pyrazolo[1,5-a]pyridin-2-ylamino)-pyridin-4-yl]-pyrido[3,4-d]pyrimidin-4-yl}-(3,3-dimethyl-piperidin-4-yl)-amine]
< 100	Cc1cccc(Nc2cc(-c3nc(N[C@H]4CCNCC4(C)C)c4c(C5CCC5)cncc4n3)ccn2)n1 [Example 271, {5-Cyclobutyl-2-[2-(6-methyl-pyridin-2-ylamino)-pyridin-4-yl]-pyrido[3,4-d]pyrimidin-4-yl}-((S)-3,3-dimethyl-piperidin-4-yl)-amine]
< 100	CC1(C)CNCC[C@@H]1Nc1nc(-c2ccnc(Nc3nc4ccccc4o3)c2)nc2cncc(C3CCC3)c12 [Example 274, {2-[2-(Benzoxazol-2-ylamino)-pyridin-4-yl]-5-cyclobutyl-pyrido[3,4-d]pyrimidin-4-yl}-((S)-3,3-dimethyl-piperidin-4-yl)-amine]
100 to 1000	CC(C)(C)c1csc(Nc2cc(-c3nc(NC4CCNCC4(C)C)c4c(C5CCC5)cncc4n3)ccn2)n1 (stereo not shown) [Example 72, {2-[2-(4-tert-Butyl-thiazol-2-ylamino)-pyridin-4-yl]-5-cyclobutyl-pyrido[3,4-d]pyrimidin-4-yl}-(3,3-dimethyl-piperidin-4-yl)-amine]

From patent US10414763B2 (CANCER RESEARCH TECHNOLOGY LIMITED, priority 2014, dated 2019)
